Results published in publication PMC6112376, “Comprehensive Analyses and Prioritization of Tox21 10K Chemicals Affecting Mitochondrial Function by in-Depth Mechanistic Studies” (Environmental Health Perspectives, 2018).
Like-named read-outs stand apart in the source and are kept apart here.

How the values were obtained:
[1] = system: Caenorhabditis elegans strain PE255; conditions: PE255 [sur-5::luc+::gfp; rol-6(su1006)], Caenorhabditis elegans, in vivo
HepG2 cells [2] = assay: Intracellular ATP content (cell viability) assay; type: cell-based, human; conditions: Homo sapiens, HepG2, 40 h
[3] = system: Caenorhabditis elegans (Bristol N2); conditions: Bristol N2 (wild type), Caenorhabditis elegans, in vivo
[4] = system: isolated rat liver mitochondria; assay: Oxygen consumption, Clark-type oxygen electrode; type: biochemical
[5] = system: Caenorhabditis elegans (Bristol N2); assay: C. elegans larval development and growth assay; conditions: for minimal effective concentration: Caenorhabditis elegans, read-out: LEC EXT: lowest effect concentration for extinction, a measure of nematode size
[6] = system: Caenorhabditis elegans strain PE255; assay: In vivo C. elegans ATP status assay; conditions: for minimal effective concentration: Caenorhabditis elegans, read-out: LEC LUM: lowest effect concentration for luminescence, a measure of nematode ATP content
rat primary hepatocytes [7] = system: rat primary hepatocytes
[8] = system: HeLa cells expressing YFP-Parkin; assay: Parkin translocation assay; type: cell-based, human
[9] = system: Nrf2/ARE (ARE-bla HepG2 cells); assay: ARE β-lactamase reporter gene assay; type: cell-based, human; conditions: Homo sapiens, HepG2; 16 h incubation; mean±SD of three experiments; read-out: ARE (HepG2) EC50
HepG2 cells [10] = assay: cells; conditions: Homo sapiens; for Emax: HepG2, read-out: MMP assays efficacy (%) HepG2
hNSC = assay: MMP assay in human neural stem cells (hNSC); type: cell-based; conditions: Homo sapiens, Neural stem cell, 1 h, read-out: hNSC IC50 (MMP)
rat primary hepatocytes [11] = assay: MMP assay in rat primary hepatocytes; conditions: Rattus norvegicus, Hepatocyte
HepG2 cells [12] = assay: ROS-Glo hydrogen peroxide (ROS) assay; type: cell-based, human
HepG2 cells [13] = conditions: cited from earlier work; for IC50: read-out: MMP assays IC50 (µM) qHTS-HepG2
[14] = system: p53 (p53-bla HCT-116 cells); assay: p53 β-lactamase reporter gene assay; type: cell-based, human; conditions: Homo sapiens; 16 h incubation; mean±SD of three experiments
[15] = read-out: ATP (HepG2, galactose) IC50
[16] = read-out: ATP (HepG2, glucose) IC50
[17] = HepG2, 1 h, read-out: HepG2 IC50 Galactose (MMP)
[18] = HepG2, 1 h, read-out: HepG2 IC50 Glucose (MMP)
[19] = HepG2, read-out: MMP assays IC50 (µM) HepG2
[20] = 1 h, read-out: Rat hepatocytes IC50 (MMP)
[21] = read-out: MMP assays IC50 (µM) Rat Hepatocytes

## CC(C)(C)c1cc([N+](=O)[O-])cc([N+](=O)[O-])c1O [Dinoterb]
[1]
  LEC (lowest effect concentration), ATP assay: < 10 µM
  inhibitory effect at (concentration) on ATP content in the C. elegans assay: 1.0 µM
HepG2 cells [2]; [15]
  IC50: 22.3 µM
HepG2 cells [2]; [16]
  IC50: 19.7 µM
[3]
  LEC (lowest effect concentration), larval growth assay: < 10 µM
[4]
  Potential Mechanism: Uncoupler at low concentrations (0.032-0.8 µM), and Uncoupler + inhibitor at high concentrations (4-100 µM)
  effect on mitochondrial respiration (in words): effects similar to those of FCCP
  uncoupler effect at (concentration) in the oxygen consumption assay: 0.032 µM
[4]; 0.0064 µM
  I-ADP, % of control (O2 consumption rate): 103 (38.3) % of control
  I-sub, % of control (O2 consumption rate): 92 (9.9) % of control
  II-ADP, % of control (O2 consumption rate): 105 (66) % of control
  II-sub, % of control (O2 consumption rate): 99 (18.4) % of control
[4]; 0.032 µM
  I-ADP, % of control (O2 consumption rate): 95 (41.5) % of control
  I-sub, % of control (O2 consumption rate): 135 (17.7) % of control
  II-ADP, % of control (O2 consumption rate): 97 (65.4) % of control
[4]; 0.16 µM
  I-ADP, % of control (O2 consumption rate): 113 (49.2) % of control
  I-sub, % of control (O2 consumption rate): 206 (27.0) % of control
  II-ADP, % of control (O2 consumption rate): 106 (72.0) % of control
  II-sub, % of control (O2 consumption rate): 264 (55.1) % of control
[4]; 0.8 µM
  I-ADP, % of control (O2 consumption rate): 148 (64.4) % of control
  I-sub, % of control (O2 consumption rate): 486 (63.7) % of control
  II-ADP, % of control (O2 consumption rate): 102 (68.8) % of control
  II-sub, % of control (O2 consumption rate): 367 (76.8) % of control
[4]; 4 µM
  I-ADP, % of control (O2 consumption rate): 100 (43.7) % of control
  I-sub, % of control (O2 consumption rate): 320 (41.9) % of control
  II-ADP, % of control (O2 consumption rate): 58 (39.5) % of control
  II-sub, % of control (O2 consumption rate): 211 (44.0) % of control
[4]; 20 µM
  I-ADP, % of control (O2 consumption rate): 69 (30.1) % of control
  I-sub, % of control (O2 consumption rate): 239 (31.3) % of control
  II-ADP, % of control (O2 consumption rate): 11 (7.7) % of control
  II-sub, % of control (O2 consumption rate): 36 (7.6) % of control
[4]; 100 µM
  I-ADP, % of control (O2 consumption rate): 10 (4.9) % of control
  I-sub, % of control (O2 consumption rate): 23 (5.0) % of control
  II-ADP, % of control (O2 consumption rate): 5 (3.1) % of control
  II-sub, % of control (O2 consumption rate): 13 (4.4) % of control
[5]
  minimal effective concentration: 5 µM
[6]
  minimal effective concentration: 1 µM
Rat primary hepatocytes [7]
  MMP assays efficacy (%) Rat Hepatocytes: -88±9%
  Rat hepatocytes (efficacy) (MMP): 2.39±1.02 ( −105±23.8 ) %
[8]
  Parkin recruitment: Active
[8]; 3 h
  Parkin translocation into mitochondria (in words): patterns similar to antimycin A and FCCP
[9]
  EC50: 0.52 ± 0.15 µM
HepG2 cells [10]; [17]
  IC50: 7.19 µM
HepG2 cells [10]; [18]
  IC50: 7.23 µM
HepG2 cells [10]; [19]
  IC50: 2.24 µM
HepG2 cells [10]
  Emax: 101%
hNSC
  IC50: 10.1 µM
Rat primary hepatocytes [11]; [20]
  IC50: 2.39 µM
Rat primary hepatocytes [11]; [21]
  IC50: 0.76 ± 0.45 µM
HepG2 cells [12]; Homo sapiens, HepG2, 2 h, read-out: ROS (HepG2) EC50
  EC50: 13.2 µM
HepG2 cells [13]
  MMP assays efficacy (%) qHTS-HepG2: -95±8%
  IC50: 0.48 µM

## Nc1ccc(N)c2c1C(=O)c1ccccc1C2=O [1,4-Diaminoanthraquinone]
[1]
  LEC (lowest effect concentration), ATP assay: ≤ 10 µM
HepG2 cells [2]; [15]
  IC50: 22.3 µM
HepG2 cells [2]; [16]
  IC50: 24.7 µM
[4]
  Potential Mechanism: Inactive
[4]; 20 µM
  I-ADP, % of control (O2 consumption rate): 89 (44.1) % of control
  I-sub, % of control (O2 consumption rate): 103 (14.2) % of control
  II-ADP, % of control (O2 consumption rate): 90 (80.2) % of control
  II-sub, % of control (O2 consumption rate): 100 (27.1) % of control
[4]; 100 µM
  I-ADP, % of control (O2 consumption rate): 82 (23.4) % of control
  I-sub, % of control (O2 consumption rate): 95 (11.4) % of control
  II-ADP, % of control (O2 consumption rate): 97 (35.2) % of control
  II-sub, % of control (O2 consumption rate): 95 (14.1) % of control
[5]; 0.5 µM
  EXT: mean difference in nematode size relative to plate controls: 0.03102
[5]; 1 µM
  EXT: mean difference in nematode size relative to plate controls: 0.01427
[5]; 5 µM
  EXT: mean difference in nematode size relative to plate controls: 0.05881
[5]; 10 µM
  EXT: mean difference in nematode size relative to plate controls: -0.04953
[5]; 25 µM
  EXT: mean difference in nematode size relative to plate controls: 0.1095
[5]; 50 µM
  EXT: mean difference in nematode size relative to plate controls: 0.2596
[5]; 75 µM
  EXT: mean difference in nematode size relative to plate controls: 0.3422
[5]; 100 µM
  EXT: mean difference in nematode size relative to plate controls: 0.4149
[5]
  minimal effective concentration: 25 µM
[6]; 0.5 µM
  LUM: mean difference in luminescence (ATP content) relative to plate controls: 0.03036
[6]; 1 µM
  LUM: mean difference in luminescence (ATP content) relative to plate controls: 0.08336
[6]; 5 µM
  LUM: mean difference in luminescence (ATP content) relative to plate controls: 0.4462
[6]; 10 µM
  LUM: mean difference in luminescence (ATP content) relative to plate controls: 0.9963
[6]; 25 µM
  LUM: mean difference in luminescence (ATP content) relative to plate controls: 1.526
[6]; 50 µM
  LUM: mean difference in luminescence (ATP content) relative to plate controls: 1.59
[6]; 75 µM
  LUM: mean difference in luminescence (ATP content) relative to plate controls: 2.063
[6]; 100 µM
  LUM: mean difference in luminescence (ATP content) relative to plate controls: 2.457
[6]
  minimal effective concentration: 5 µM
Rat primary hepatocytes [7]
  MMP assays efficacy (%) Rat Hepatocytes: -93±8%
  Rat hepatocytes (efficacy) (MMP): 3.79±1.62 ( −118±24.7 ) %
[8]
  Parkin recruitment: Inactive
[9]
  EC50: 22.9 ± 27.4 µM
HepG2 cells [10]; [17]
  IC50: 1.13 µM
HepG2 cells [10]; [18]
  IC50: 0.77 µM
HepG2 cells [10]; [19]
  IC50: 0.22 µM
HepG2 cells [10]
  Emax: 81%
hNSC
  IC50: 0.15 µM
Rat primary hepatocytes [11]; [20]
  IC50: 3.79 µM
Rat primary hepatocytes [11]; [21]
  IC50: 1.24 ± 0.76 µM
HepG2 cells [12]
  ROS (HepG2) EC50: Inactive
HepG2 cells [13]
  MMP assays efficacy (%) qHTS-HepG2: -82±13%
  IC50: 0.03 ± 0.01 µM
[14]
  EC50: 35.7 ± 2.41 µM
